# Patent publication US10975080B2, “Compounds and compositions for inhibiting the activity of SHP2” (NOVARTIS AG, priority 2015, dated 2021)
# Molecular target: SHP2 (Homo sapiens (Human), UniProt Q06124)
# Assay: SHP2 Allosteric Inhibition Assay
# Type: biochemical
# Conditions: 0.5 nM SHP2 with 0.5 μM peptide IRS1_pY1172(dPEG8)pY1222; surrogate substrate DiFMUP; 25° C.; read-out: SHP2 IC50
# Source text: SHP2 Allosteric Inhibition Assay
# SHP2 is allosterically activated through binding of bis-tyrosyl-phosphorylated peptides to its Src Homology 2 (SH2) domains. The latter activation step leads to the release of the auto-inhibitory interface of SHP2, which in turn renders the SHP2 protein tyrosine phosphatase (PTP) active and available for substrate recognition and reaction catalysis. The catalytic activity of SHP2 was monitored using the surrogate substrate DiFMUP in a prompt fluorescence assay format.
# After 30-60 minutes incubation at 25° C., the surrogate substrate DiFMUP (Invitrogen, cat #D6567) was added to the reaction and incubated at 25° C. for 30 minutes. […] The inhibitor dose response curves were analyzed using normalized IC50 regression curve fitting with control based normalization.
row,SMILES,IC50 [nM]
1,"C[C@@H]1OCC2(CCN(c3nc4[nH]nc(-c5ccnc(NC6CCC6)c5Cl)c4c(=O)n3C)CC2)[C@@H]1N [Example 29, 6-((3S,4S)-4-amino-3-methyl-2-oxa-8-azaspiro[4.5]decan-8-yl)-3-(3-chloro-2-(cyclobutylamino)pyridin-4-yl)-5-methyl-1,5-dihydro-4H-pyrazolo[3,4-d]pyrimidin-4-one]",35
2,"C[C@@H]1OCC2(CCN(c3nc4[nH]nc(-c5ccnc(N6CCCC6)c5Cl)c4c(=O)n3C)CC2)[C@@H]1N [Example 31, 6-((3S,4S)-4-amino-3-methyl-2-oxa-8-azaspiro[4.5]decan-8-yl)-3-(3-chloro-2-(pyrrolidin-1-yl)pyridin-4-yl)-5-methyl-1,5-dihydro-4H-pyrazolo[3,4-d]pyrimidin-4-one]",12
3,"CNc1nccc(-c2n[nH]c3nc(N4CCC5(CC4)CO[C@@H](C)[C@H]5N)n(C)c(=O)c23)c1Cl [Example 32, 6-((3S,4S)-4-amino-3-methyl-2-oxa-8-azaspiro[4.5]decan-8-yl)-3-(3-chloro-2-(methylamino)pyridin-4-yl)-5-methyl-1,5-dihydro-4H-pyrazolo[3,4-d]pyrimidin-4-one]",54
4,"C[C@@H]1OCC2(CCN(c3nc4[nH]nc(-c5ccnc(Cl)c5Br)c4c(=O)n3C)CC2)[C@@H]1N [Example 33, 6-((3S,4S)-4-amino-3-methyl-2-oxa-8-azaspiro[4.5]decan-8-yl)-3-(3-bromo-2-chloropyridin-4-yl)-5-methyl-1,5-dihydro-4H-pyrazolo[3,4-d]pyrimidin-4-one]",13
5,"Cn1c(N2CCC3(CC2)C[C@H](F)C[C@H]3N)nc2[nH]nc(-c3ccnc(N)c3Cl)c2c1=O [Example 37, 3-(2-amino-3-chloropyridin-4-yl)-6-((1R,3S)-1-amino-3-fluoro-8-azaspiro[4.5]decan-8-yl)-5-methyl-1,5-dihydro-4H-pyrazolo[3,4-d]pyrimidin-4-one]",27
6,"Cn1c(N2CCC3(CC2)C[C@H](F)C[C@H]3N)nc2[nH]nc(-c3ccccc3)c2c1=O [Example 39, 6-((1R,3S)-1-amino-3-fluoro-8-azaspiro[4.5]decan-8-yl)-5-methyl-3-phenyl-1,5-dihydro-4H-pyrazolo[3,4-d]pyrimidin-4-one]",37
7,"Cc1nc(N(C)C)ccc1-c1n[nH]c2nc(N3CCC4(CC3)CO[C@@H](C)[C@H]4N)n(C)c(=O)c12 [Example 40, 6-((3S,4S)-4-amino-3-methyl-2-oxa-8-azaspiro[4.5]decan-8-yl)-3-(6-(dimethylamino)-2-methylpyridin-3-yl)-5-methyl-1,5-dihydro-4H-pyrazolo[3,4-d]pyrimidin-4-one]",89
8,"COc1ccc(-c2n[nH]c3nc(N4CCC5(CC4)CO[C@@H](C)[C@H]5N)n(C)c(=O)c23)cc1 [Example 42, 6-((3S,4S)-4-amino-3-methyl-2-oxa-8-azaspiro[4.5]decan-8-yl)-3-(4-methoxyphenyl)-5-methyl-1,5-dihydro-4H-pyrazolo[3,4-d]pyrimidin-4-one]",20
9,"C[C@@H]1OCC2(CCN(c3nc4[nH]nc(-c5ccnc(N6CC[C@@H](O)C6)c5Cl)c4c(=O)n3C)CC2)[C@@H]1N [Example 43, 6-((3S,4S)-4-amino-3-methyl-2-oxa-8-azaspiro[4.5]decan-8-yl)-3-(3-chloro-2-((R)-3-hydroxypyrrolidin-1-yl)pyridin-4-yl)-5-methyl-1,5-dihydro-4H-pyrazolo[3,4-d]pyrimidin-4-one]",84
10,"C[C@@H]1OCC2(CCN(c3nc4[nH]nc(-c5ccnc(Cl)c5)c4c(=O)n3C)CC2)[C@@H]1N [Example 44, 6-((3S,4S)-4-amino-3-methyl-2-oxa-8-azaspiro[4.5]decan-8-yl)-3-(2-chloropyridin-4-yl)-5-methyl-1,5-dihydro-4H-pyrazolo[3,4-d]pyrimidin-4-one]",16
11,"Cc1nc(N)ccc1-c1n[nH]c2nc(N3CCC4(CC3)CO[C@@H](C)[C@H]4N)n(C)c(=O)c12 [Example 47, 3-(6-amino-2-methylpyridin-3-yl)-6-((3S,4S)-4-amino-3-methyl-2-oxa-8-azaspiro[4.5]decan-8-yl)-5-methyl-1,5-dihydro-4H-pyrazolo[3,4-d]pyrimidin-4-one]",37

# Continued by falling IC50, values first:
row,IC50 [nM],SMILES
1,312,"Cn1c(N2CCC(C)(CN)CC2)nc2[nH]nc(-c3ccncc3Cl)c2c1=O [Example 28, 6-(4-(aminomethyl)-4-methylpiperidin-1-yl)-3-(3-chloropyridin-4-yl)-5-methyl-1,5-dihydro-4H-pyrazolo[3,4-d]pyrimidin-4-one]"
2,103,"C[C@@H]1OCC2(CCN(c3nc4[nH]nc(-c5ccnc(N6CCOCC6)c5Cl)c4c(=O)n3C)CC2)[C@@H]1N [Example 30, 6-((3S,4S)-4-amino-3-methyl-2-oxa-8-azaspiro[4.5]decan-8-yl)-3-(3-chloro-2-morpholinopyridin-4-yl)-5-methyl-1,5-dihydro-4H-pyrazolo[3,4-d]pyrimidin-4-one]"
3,50,"CNc1cc(-c2n[nH]c3nc(N4CCC5(CC4)CO[C@@H](C)[C@H]5N)n(C)c(=O)c23)ccn1 [Example 46, 6-((3S,4S)-4-amino-3-methyl-2-oxa-8-azaspiro[4.5]decan-8-yl)-5-methyl-3-(2-(methylamino)pyridin-4-yl)-1,5-dihydro-4H-pyrazolo[3,4-d]pyrimidin-4-one]"
4,37,"C[C@@H]1OCC2(CCN(c3nc4[nH]nc(-c5ccnc(N)c5)c4c(=O)n3C)CC2)[C@@H]1N [Example 45, 6-((3S,4S)-4-amino-3-methyl-2-oxa-8-azaspiro[4.5]decan-8-yl)-3-(2-aminopyridin-4-yl)-5-methyl-1,5-dihydro-4H-pyrazolo[3,4-d]pyrimidin-4-one]"
5,34,"CNc1nccc(-c2n[nH]c3nc(N4CCC5(CC4)CO[C@@H](C)[C@H]5N)n(C)c(=O)c23)c1Br [Example 35, 6-((3S,4S)-4-amino-3-methyl-2-oxa-8-azaspiro[4.5]decan-8-yl)-3-(3-bromo-2(methylamino)pyridin-4-yl)-5-methyl-1,5-dihydro-4H-pyrazolo[3,4-d]pyrimidin-4-one]"
6,33,"C[C@@H]1OCC2(CCN(c3nc4[nH]nc(-c5ccccc5)c4c(=O)n3C)CC2)[C@@H]1N [Example 41, 6-((3S,4S)-4-amino-3-methyl-2-oxa-8-azaspiro[4.5]decan-8-yl)-5-methyl-3-phenyl-1,5-dihydro-4H-pyrazolo[3,4-d]pyrimidin-4-one]"
7,27,"C[C@@H]1OCC2(CCN(c3nc4[nH]nc(-c5ccnc(Br)c5)c4c(=O)n3C)CC2)[C@@H]1N [Example 34, 6-((3S,4S)-4-amino-3-methyl-2-oxa-8-azaspiro[4.5]decan-8-yl)-3-(2-bromopyridin-4-yl)-5-methyl-1,5-dihydro-4H-pyrazolo[3,4-d]pyrimidin-4-one]"
8,11,"Cn1c(N2CCC3(CC2)C[C@H](F)C[C@H]3N)nc2[nH]nc(-c3ccnc(NC4CC4)c3Cl)c2c1=O [Example 38, 6-((1R,3S)-1-amino-3-fluoro-8-azaspiro[4.5]decan-8-yl)-3-(3-chloro-2-(cyclopropylamino)pyridin-4-yl)-5-methyl-1,5-dihydro-4H-pyrazolo[3,4-d]pyrimidin-4-one]"
9,9,"C[C@H]1C[C@@H](N)C2(CCN(c3nc4[nH]nc(-c5ccncc5)c4c(=O)n3C)CC2)C1 [Example 36, 6-((1R,3R)-1-amino-3-methyl-8-azaspiro[4.5]decan-8-yl)-5-methyl-3-(pyridin-4-yl)-1,5-dihydro-4H-pyrazolo[3,4-d]pyrimidin-4-one]"
